Several values for one entry are separate records, joined by “and”; a condition that tells them apart may be missing. Identical values can stand only once.

One assay deals with T1, sGC enzyme (Homo sapiens, UniProt Q02108+Q02153).
T1 construct: incorporated into these cells detect cGMP formed by the compounds stimulating the sGC enzyme; host or cells: HEK293 cells stably expressing GloSensor 40F cGMP biosensor
T1 sequence (Q02153 1-619): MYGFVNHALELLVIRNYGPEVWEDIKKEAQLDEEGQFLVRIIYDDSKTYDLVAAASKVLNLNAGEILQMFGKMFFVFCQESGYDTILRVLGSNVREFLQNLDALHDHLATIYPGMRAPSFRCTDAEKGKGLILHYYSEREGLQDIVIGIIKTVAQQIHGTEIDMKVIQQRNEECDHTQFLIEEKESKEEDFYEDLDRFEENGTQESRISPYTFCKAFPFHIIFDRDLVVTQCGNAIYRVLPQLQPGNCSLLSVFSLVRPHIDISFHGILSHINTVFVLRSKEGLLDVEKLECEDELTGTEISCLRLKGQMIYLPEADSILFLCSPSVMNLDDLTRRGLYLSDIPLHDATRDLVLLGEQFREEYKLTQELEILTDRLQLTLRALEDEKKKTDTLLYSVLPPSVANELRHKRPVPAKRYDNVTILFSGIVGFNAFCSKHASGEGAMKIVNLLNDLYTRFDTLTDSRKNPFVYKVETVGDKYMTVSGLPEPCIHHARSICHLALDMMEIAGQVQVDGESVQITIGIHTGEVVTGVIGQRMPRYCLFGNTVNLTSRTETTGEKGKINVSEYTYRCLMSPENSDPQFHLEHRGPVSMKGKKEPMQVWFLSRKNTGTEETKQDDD
T1 sequence (Q02108 1-690): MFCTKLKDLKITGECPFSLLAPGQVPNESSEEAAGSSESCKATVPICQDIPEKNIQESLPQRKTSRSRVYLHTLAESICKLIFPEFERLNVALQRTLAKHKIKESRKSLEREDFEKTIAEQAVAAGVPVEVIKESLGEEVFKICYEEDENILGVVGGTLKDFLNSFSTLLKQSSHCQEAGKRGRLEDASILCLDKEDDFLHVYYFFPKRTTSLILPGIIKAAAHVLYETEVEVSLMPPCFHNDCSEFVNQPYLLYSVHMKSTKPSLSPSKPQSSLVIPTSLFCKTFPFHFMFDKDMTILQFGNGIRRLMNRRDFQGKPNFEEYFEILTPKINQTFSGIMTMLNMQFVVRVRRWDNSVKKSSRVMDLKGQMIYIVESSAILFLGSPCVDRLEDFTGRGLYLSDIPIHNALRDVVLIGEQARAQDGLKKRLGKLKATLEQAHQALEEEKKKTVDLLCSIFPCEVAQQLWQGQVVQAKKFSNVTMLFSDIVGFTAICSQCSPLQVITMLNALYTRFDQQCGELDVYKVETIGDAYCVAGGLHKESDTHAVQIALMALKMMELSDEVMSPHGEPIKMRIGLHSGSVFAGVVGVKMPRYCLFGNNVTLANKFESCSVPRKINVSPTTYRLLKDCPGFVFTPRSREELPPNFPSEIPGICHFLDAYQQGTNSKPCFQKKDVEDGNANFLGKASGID
Nature of the assay: cGMP GloSensor cell-based assay, 384-well format. Particulars: HEK293 cells expressing GloSensor 40F cGMP; 10 μM DETA-NONOate; normalized to 30 μM Compound Y; compounds in Table IA; read-out: Glo-sensor AbsEC50. From the text: Human embryonic kidney cells (HEK293) cells expressing GloSensor™ 40F cGMP (Part No: CS182801, Promega) were used to evaluate the activity of test compounds. The luminescent biosensors (engineered luciferase) that were incorporated into these cells detect cGMP formed by the compounds stimulating the sGC enzyme and emit luminescence.
cGMP GloSensor cells were maintained in Dulbecco's Modification of Eagle's Medium (DMEM) supplemented with fetal bovine serum (FBS, 10% final) and hygromycine (200 ug/ml). […] Cells were incubated overnight at 37° C. in a humidified chamber with 5% CO2. The next day, medium was removed and cells were replaced with 40 ul/well of GloSensor™, 2 mM (Promega Cat No E1291). Cells were treated for 90 minutes at 25° C. to allow the substrate to equilibrate in the cells. […] For endpoint SAR screening, data were collected after 55 min incubation at room temperature.
Data were fit using a 4-parameter fit (log(agonist) vs. response—variable slope) using GraphPad Prism Software v.5. n=2 for all compounds. […] Compounds failing to elicit a minimum response of 50% are reported as >30 μM or ND.
On to `Fc1n[nH]c(-c2nn(Cc3ccccc3F)c3ncccc23)n1` [Compound I-45, 3-(3-fluoro-1H-1,2,4-triazol-5-yl)-1-(2-fluorobenzyl)-1H-pyrazolo[3,4-b]pyridine], for which the EC50 lay within 100 to 1000 nM.
For the molecule `Cc1ncc(Cn2nc(-c3nc(C(F)(F)F)n[nH]3)c3cccc(Cl)c32)cn1` [Compound I-46, 7-Chloro-1-((2-methylpyrimidin-5-yl)methyl)-3-(3-(trifluoromethyl)-1H-1,2,4-triazol-5-yl)-1H-indazole], the EC50 lay in the range of 100 to 1000 nM.
In the case of `Fc1ccccc1Cn1nc(-c2nc(Cl)n[nH]2)c2cccnc21` [Compound I-47, 3-(3-Chloro-1H-1,2,4-triazol-5-yl)-1-(2-fluorobenzyl)-1H-pyrazolo[3,4-b]pyridine], the EC50 was under 100 nM.
Still for that read-out and setting: with `Cc1ccc2c(-c3nc(C(F)(F)F)n[nH]3)nn(Cc3ccccc3F)c2n1` [Compound I-50, 1-(2-Fluorobenzyl)-6-methyl-3-(3-(trifluoromethyl)-1H-1,2,4-triazol-5-yl)-1H-pyrazolo[3,4-b]pyridine] the figure was under 100 nM; with `Fc1cc(F)cc(Cn2nc(-c3nc(C(F)(F)F)n[nH]3)c3cccnc32)c1` [Compound I-51, 1-(3,5-Difluorobenzyl)-3-(3-(trifluoromethyl)-1H-1,2,4-triazol-5-yl)-1H-pyrazolo[3,4-b]pyridine], under 100 nM; with `Fc1cccc(Cn2nc(-c3nc(C(F)(F)F)n[nH]3)c3cccnc32)c1` [Compound I-52, 1-(3-Fluorobenzyl)-3-(3-(trifluoromethyl)-1H-1,2,4-triazol-5-yl)-1H-pyrazolo[3,4-b]pyridine], under 100 nM.
As to `Fc1ccc(Cn2nc(-c3nc(C(F)(F)F)n[nH]3)c3cccnc32)cc1` [Compound I-53, 1-(4-Fluorobenzyl)-3-(3-(trifluoromethyl)-1H-1,2,4-triazol-5-yl)-1H-pyrazolo[3,4-b]pyridine], the EC50 was under 100 nM.
On the same count and under the same terms, with `Cc1ccc(Cn2nc(-c3nc(C(F)(F)F)n[nH]3)c3cccnc32)cc1` [Compound I-54, 1-(4-Methylbenzyl)-3-(3-(trifluoromethyl)-1H-1,2,4-triazol-5-yl)-1H-pyrazolo[3,4-b]pyridine] the figure was under 100 nM; with `C=C(C)c1n[nH]c(-c2nn(Cc3ccccc3F)c3ncccc23)n1` [Compound I-55], 100 to 1000 nM; with `Fc1ccccc1Cn1nc(-c2nc(N3CCOCC3)n[nH]2)c2cccnc21` [Compound I-57], 100 to 1000 nM.
Still for that read-out and setting: to `FCc1n[nH]c(-c2nn(Cc3ccccc3F)c3ncccc23)n1` [Compound I-58, 1-(2-Fluorobenzyl)-3-(3-(fluoromethyl)-1H-1,2,4-triazol-5-yl)-1H-pyrazolo[3,4-b]pyridine] belongs under 100 nM.
On the same count and under the same terms, with `Fc1ccccc1Cn1nc(-c2nc(C3(C(F)(F)F)CC3)n[nH]2)c2cccnc21` [Compound I-59, 1-(2-fluorobenzyl)-3-(3-(1-(trifluoromethyl)cyclopropyl)-1H-1,2,4-triazol-5-yl)-1H-pyrazolo[3,4-b]pyridine] the figure was 100 to 1000 nM.
Turning to `Cc1n[nH]c(-c2nn(Cc3ccccc3F)c3ncccc23)n1` [Compound I-60, 1-(2-Fluorobenzyl)-3-(3-methyl-1H-1,2,4-triazol-5-yl)-1H-pyrazolo[3,4-b]pyridine], the EC50 is under 100 nM.
Turning to `Cc1ncc(Cn2nc(-c3nc(C(F)(F)F)n[nH]3)c3ccc(F)cc32)cn1` [Compound I-61, 6-Fluoro-1-((2-methylpyrimidin-5-yl)methyl)-3-(3-(trifluoromethyl)-1H-1,2,4-triazol-5-yl)-1H-indazole], the EC50 is under 100 nM.
Same read-out and setting: to `CC1(c2n[nH]c(-c3nn(Cc4ccccc4F)c4ncccc34)n2)CC1` [Compound I-63, 1-(2-Fluorobenzyl)-3-(3-(1-methylcyclopropyl)-1H-1,2,4-triazol-5-yl)-1H-pyrazolo[3,4-b]pyridine] belongs under 100 nM; to `Fc1ccccc1Cn1nc(-c2nc(C(F)(F)Cl)n[nH]2)c2cccnc21` [Compound I-65, 3-(3-(Chlorodifluoromethyl)-1H-1,2,4-triazol-5-yl)-1-(2-fluorobenzyl)-1H-pyrazolo[3,4-b]pyridine], under 100 nM.
The same measure, in the same setting: to `CCC(=O)c1n[nH]c(-c2nn(Cc3ccccc3F)c3ncccc23)n1` [Compound I-66] belongs over 1000 nM; to `Fc1cccc(Cn2nc(-c3nc(C(F)F)n[nH]3)c3cccnc32)c1F` [Compound I-67, 1-(2,3-Difluorobenzyl)-3-(3-(difluoromethyl)-1H-1,2,4-triazol-5-yl)-1H-pyrazolo[3,4-b]pyridine], under 100 nM.
Consider `Fc1ccccc1Cn1nc(-c2nc(C3CC3)n[nH]2)c2cccnc21` [Compound I-68, 3-(3-Cyclopropyl-1H-1,2,4-triazol-5-yl)-1-(2-fluorobenzyl)-1H-pyrazolo[3,4-b]pyridine], for which the EC50 was under 100 nM.
Regarding `Fc1ccccc1Cn1nc(-c2nc(CCCCl)n[nH]2)c2cccnc21` [Compound I-69, 3-(3-(3-chloropropyl)-1H-1,2,4-triazol-5-yl)-1-(2-fluorobenzyl)-1H-pyrazolo[3,4-b]pyridine], the EC50 is 100 to 1000 nM.
On to `CC1(c2n[nH]c(-c3nn(Cc4ccccc4F)c4ncccc34)n2)COC1` [Compound I-70, 1-(2-fluorobenzyl)-3-(3-(3-methyloxetan-3-yl)-1H-1,2,4-triazol-5-yl)-1H-pyrazolo[3,4-b]pyridine], for which the EC50 is 100 to 1000 nM and > 1000 nM.
In the case of `Fc1ccccc1Cn1nc(-c2nc(C3CNC3)n[nH]2)c2cccnc21` [Compound I-73, 3-(3-(azetidin-3-yl)-1H-1,2,4-triazol-5-yl)-1-(2-fluorobenzyl)-1H-pyrazolo[3,4-b]pyridine], the EC50 was > 1000 nM and < 100 nM.
Consider `CN(C)C(=O)c1n[nH]c(-c2nn(Cc3ccccc3F)c3ncccc23)n1` [Compound I-74, 5-(1-(2-fluorobenzyl)-1H-pyrazolo[3,4-b]pyridin-3-yl)-N,N-dimethyl-1H-1,2,4-triazole-3-carboxamide], for which the EC50 lay in the range of 100 to 1000 nM.
The same measure, in the same setting: to `O=C(N1CC(c2n[nH]c(-c3nn(Cc4ccccc4F)c4ncccc34)n2)C1)C(F)(F)F` [Compound I-75] belongs 100 to 1000 nM.
Consider `CC(C)(C)OC(=O)NC1(c2n[nH]c(-c3nn(Cc4ccccc4F)c4ncccc34)n2)COC1` [Compound I-76, tert-Butyl (3-(5-(1-(2-fluorobenzyl)-1H-pyrazolo[3,4-b]pyridin-3-yl)-1H-1,2,4-triazol-3-yl)oxetan-3-yl)carbamate], for which the EC50 is 100 to 1000 nM.
Still for that read-out and setting: to `Fc1ccccc1Cn1nc(-c2nc(C3CC(F)(F)C3)n[nH]2)c2cccnc21` [Compound I-77, 3-(3-(3,3-Difluorocyclobutyl)-1H-1,2,4-triazol-5-yl)-1-(2-fluorobenzyl)-1H-pyrazolo[3,4-b]pyridine] belongs 100 to 1000 nM; to `Fc1ccccc1Cn1nc(-c2nc(C3CCOCC3)n[nH]2)c2cccnc21` [Compound I-78, 1-(2-Fluorobenzyl)-3-(3-(tetrahydro-2H-pyran-4-yl)-1H-1,2,4-triazol-5-yl)-1H-pyrazolo[3,4-b]pyridine], over 1000 nM.

Still in this assay, the particulars now being: HEK293 cells expressing GloSensor 40F cGMP; 10 μM DETA-NONOate; normalized to 30 μM Compound Y; compounds in Table IB; read-out: Glo-sensor Abs EC50.
Take `Fc1ccccc1Cc1nc(-c2nc(C(F)(F)F)n[nH]2)n2ccncc12` [Compound I-44, 1-(2-Fluorobenzyl)-3-(3-(trifluoromethyl)-1H-1,2,4-triazol-5-yl)imidazo[1,5-a]pyrazine]: the EC50 is over 1000 nM.

These data come from patent US12435080B2, “sGC stimulators” (Tisento Therapeutics Inc., priority 2016, dated 2025).
